# Reference: PubChem BioAssay (NCI)
# “And” between values parts separate entries of the source, which are not always exact repeats. Identical values can stand only once.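 48-hour exposure; five concentrations; linearly interpolated endpoints. TGI: concentration producing complete growth inhibition.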
# Columns and labels:
# Assay in all cases: inhibition of tumour cell growth, NCI panel, 48 h
# [1] = tested on: MDA-MB-231 breast
# [2] = tested on: KM12 colon
# [3] = tested on: OVCAR-5 ovarian
# [4] = tested on: COLO 205 colon
# [5] = tested on: SW-620 colon
# [6] = tested on: MCF7 breast
# [7] = tested on: MDA-N
# [8] = tested on: DU-145 prostate
# [9] = tested on: OVCAR-8 ovarian
# [10] = tested on: NCI-H23 lung
SMILES,TGI [1],TGI [2],TGI [3],TGI [4],TGI [5],TGI [6],TGI [7],TGI [8],TGI [9],TGI [10]
CCOP(=O)(/C=C\n1ccc(=O)[nH]c1=O)OCC,> 100 µM,> 100 µM,> 100 µM,> 100 µM,> 100 µM,> 100 µM,> 100 µM,> 100 µM,> 100 µM,> 100 µM
CC1(CCCCO)C=CC(S(=O)(=O)c2ccccc2)CC1 (stereo not given),16.4 µM,8.45 µM,17.5 µM,14.4 µM,20.6 µM,11.3 µM,14.4 µM,17.7 µM,23.2 µM,17.8 µM
CCCCOc1ccc(S(=O)(=O)/N=C(\N)Nc2ccc(Cl)cc2)cc1,29.7 µM,39.6 µM,33.2 µM,> 100 µM,32.3 µM,26.9 µM,30.4 µM,34.3 µM,29.9 µM,29.9 µM
N#Cc1c(N)nc2n[nH]c(N)c2c1-c1ccccc1,38.7 µM,79.5 µM,> 100 µM,24.3 µM,> 100 µM,24.7 µM,33 µM,54.2 µM,41.8 µM,50.2 µM
Nc1nc2c(c(=O)[nH]1)NC(CCNc1ccc(C(=O)O)cc1)CN2 (stereo not given),> 100 µM,> 100 µM,> 100 µM,> 100 µM,> 100 µM,> 100 µM,> 100 µM,> 100 µM,> 100 µM,> 100 µM
O=S(=O)(/N=C(\NO)Nc1ccc(Cl)cc1)c1cc(S(=O)(=O)c2ccccc2)cs1,56.1 µM,64.7 µM,42.5 µM,34.2 µM,49.2 µM,35.9 µM,34.8 µM,33 µM,36.7 µM,41.9 µM
COc1ccc2c(C(=O)c3c(C)n(CCN4CCOCC4)c4ccccc34)cccc2c1,80.2 µM,68.2 µM,> 100 µM,43.4 µM,55.4 µM,55.9 µM,> 100 µM,> 100 µM,59.4 µM,> 100 µM
COC1(c2ccccc2)NC(=S)NN=C1c1ccccc1 (stereo not given),70.9 µM,> 100 µM,> 100 µM,49.8 µM,> 100 µM,> 100 µM,45 µM,> 100 µM,84 µM,> 100 µM
CC1=C2CC(C)(C)CC(=O)C2(C)CCC1=O (stereo not given),> 100 µM,> 100 µM,> 100 µM,> 100 µM,> 100 µM,> 100 µM,> 100 µM,> 100 µM,> 100 µM,> 100 µM
CC(C)CCCC(C)[C@H]1CCC2[C@@H]3CCC4Cc5nc6c(nc5C[C@]4(C)C3CC[C@@]21C)CC1CC[C@@H]2C(CC[C@@]3(C)C2CC[C@@H]3O)[C@@]1(C)C6 (stereo not given in full),> 100 µM,> 100 µM,> 100 µM,> 100 µM,> 100 µM,> 100 µM,> 100 µM,> 100 µM,> 100 µM,> 100 µM
CCN(CC)Cc1ccc(Nc2c3ccccc3nc3ccccc23)cc1,4.64 µM,13.1 µM,5.46 µM,5.78 µM,4.12 µM,4.36 µM,3.23 µM,7.01 µM,15 µM,4.52 µM
COc1cccc(Nc2nc(NS(=O)(=O)c3cc(C)c(Cl)cc3S)n[nH]2)c1,> 100 µM,> 100 µM,> 100 µM,> 100 µM,> 100 µM,> 100 µM,> 100 µM,> 100 µM,> 100 µM,> 100 µM
O=C1CC(=O)NC(=NN2C(=O)/C(=C/c3ccc(Cl)cc3)N=C2c2ccccc2)N1,35.6 µM,27.6 µM,30.2 µM,31.5 µM,31.9 µM,53.7 µM,30.2 µM,> 100 µM,30.5 µM,31.5 µM
COc1cccc(N2C(=O)C3CC(CC(C)(C)C)c4c([nH]c5ccccc45)C3C2=O)c1 (stereo not given),> 10 µM,> 10 µM,> 10 µM,> 10 µM,> 10 µM,> 10 µM,> 10 µM,> 10 µM,> 10 µM,> 10 µM
CCCCC1Cc2cc(OC)ccc2-c2n1c1cc(OC)ccc1[n+]2C (stereo not given) (tested in a mixture with another compound),20.6 µM,10.7 µM,68.2 µM,1.69 µM,> 55.5 µM,15.8 µM,11.1 µM,> 64.1 µM,49 µM,> 39.9 µM
CC(=O)c1sc2c(c1O)c(=O)n(-c1ccccc1)c(=S)n2-c1ccccc1,> 100 µM,> 100 µM,> 100 µM,> 100 µM,> 100 µM,> 100 µM,> 100 µM,> 100 µM,> 100 µM,> 100 µM
O=c1c2ccccc2n2cnc3ccc(NCCNCCO)c1c32,6.58 µM,5.72 µM,5.84 µM,5.09 µM,5.11 µM,9.62 µM,9.61 µM,3.31 µM,5.02 µM,8.12 µM

SMILES,TGI [1],TGI [2],TGI [3],TGI [4],TGI [5],TGI [6],TGI [7],TGI [8],TGI [9],TGI [10]
COc1cccc(-c2[nH]c3cc4c(cc3c(=O)c2C(=O)O)OCO4)c1,> 100 µM,> 100 µM,> 100 µM,74.9 µM,> 100 µM,> 100 µM,51.5 µM,> 100 µM,65.9 µM,> 100 µM
O=C1c2ccccc2-n2c1nc1ccc(Cl)cc1c2=O,> 100 µM,> 100 µM,> 100 µM,> 100 µM,> 100 µM,> 100 µM,48.3 µM,> 100 µM,> 100 µM,> 100 µM
C=C1C(=O)O[C@@H]2[C@H]1C[C@H](I)[C@@]1(C)CC[C@H](O1)[C@](C)(I)CCCC(C)[C@@H]2O (stereo not given in full),16.3 µM,23.7 µM,26.5 µM,4.95 µM,3.51 µM,7.29 µM,9.57 µM,13.6 µM,8.12 µM,20.5 µM
C/C(=N\Nc1nc2ccccc2n1C)c1ccc2ccccc2n1,28.8 µM,43.5 µM,11 µM,> 100 µM,25.8 µM,27.4 µM,37.7 µM,14.5 µM,> 100 µM,31 µM
C=C(Cl)C(Cl)(CBr)CCC(Br)C(C)(C)Cl (stereo not given),2.92 µM and 5.94 µM and 27.2 µM,3.57 µM and 2.83 µM and 6.38 µM,8.38 µM and 4.14 µM and 29.8 µM,4.02 µM and 7.41 µM and 31.6 µM,6.08 µM and 4.35 µM and 27.7 µM,2.83 µM and 2.09 µM and 8.1 µM,8.91 µM and 3.02 µM and 21.6 µM,3.86 µM and 3.1 µM and 7.05 µM,5.15 µM and 2.59 µM and 17 µM,40.7 µM and 33.8 µM and > 70.2 µM
N#C[C@H](C(=O)c1ccccc1F)c1nc2ccccc2[nH]1,> 100 µM,> 100 µM,> 100 µM,> 100 µM,> 100 µM,> 100 µM,> 100 µM,> 100 µM,> 100 µM,> 100 µM
Cn1c(SCc2c[nH]c3ccccc23)nnc1-c1ccc(Cl)cc1Cl,66.3 µM,25.2 µM,86.7 µM,27.4 µM,> 100 µM,84.9 µM,78.9 µM,78.5 µM,> 100 µM,69.9 µM
CCCCCC(/C=C/[C@@H]1[C@@H](C(O)CCCCCC(=O)OC)C(=O)C[C@H]1O[Si](C)(C)C(C)(C)C)OCOCCOC (stereo not given in full),44.1 µM,16.1 µM,48 µM,49.6 µM,29.3 µM,> 47 µM,24.4 µM,36.9 µM,42.8 µM,32.3 µM
Brc1ccc(-c2nc(-c3ccc(Br)cc3)n(-c3ccccc3)n2)cc1,> 100 µM,> 100 µM,> 100 µM,57.5 µM,> 100 µM,> 100 µM,> 100 µM,> 100 µM,> 100 µM,> 100 µM
CN(CCCNC(=O)c1c2ccc3ccccc3c2nn1C)CCCNC(=O)c1c2ccc3ccccc3c2nn1C,25.8 µM,23.7 µM,25.4 µM,3.54 µM,21.3 µM,15.6 µM,8.91 µM,44.4 µM,27.2 µM,29.4 µM
CSC1(Cc2ccccn2)C(=O)Nc2cccc([N+](=O)[O-])c21 (stereo not given),> 100 µM,> 100 µM,> 100 µM,> 100 µM,> 100 µM,> 100 µM,> 100 µM,> 100 µM,> 100 µM,> 100 µM
CCOP(=O)(/C=C/n1cnc2c(=O)n(C(C)=O)c(N)nc21)OCC,> 100 µM,> 100 µM,> 100 µM,> 100 µM,> 100 µM,> 100 µM,> 100 µM,> 100 µM,> 100 µM,> 100 µM
Cn1c(=O)n2n(c1=O)C(S(=O)c1ccccc1)C2 (stereo not given),> 100 µM,> 100 µM,> 100 µM,> 100 µM,> 100 µM,> 100 µM,> 100 µM,> 100 µM,> 100 µM,> 100 µM
Nc1ncnc2c1N=C(c1ccccc1)CC(c1ccccc1)N2 (stereo not given),> 100 µM,> 100 µM,> 100 µM,> 100 µM,> 100 µM,> 100 µM,> 100 µM,> 100 µM,> 100 µM,> 100 µM
CC(=O)OC1CC[C@@]2(C)C(=CC[C@@H]3[C@@H]2CC[C@]2(C)C(OC(C)=O)[C@H](n4ccnc4)C[C@@H]32)C1 (stereo not given in full),> 100 µM,30.4 µM,> 100 µM,34.4 µM,> 100 µM,33.2 µM,46.6 µM,> 100 µM,44.2 µM,> 100 µM
Nc1ncc(Sc2ccccc2C(=O)O)s1,> 100 µM,> 100 µM,> 100 µM,> 100 µM,> 100 µM,> 100 µM,> 100 µM,> 100 µM,> 100 µM,> 100 µM
